According to DBAASP:
Converted amounts (≈) assume the structure as drawn. Values belong to the compound of their own block, whether it stands above or below them.

Legend:
Assay in all cases: ≥ marks a high value that may be exact or a test limit, other limits are often not marked, values filed in µg/mL are converted to µM
[1] = tested on: Batrachochytrium dendrobatidis JEL-197
[2] = tested on: Escherichia coli NCTC 12923
[3] = tested on: Staphylococcus aureus USA 300
[4] = tested on: Staphylococcus aureus ATCC 9144
[5] = tested on: Klebsiella pneumoniae NCTC 13368
[6] = tested on: Staphylococcus aureus NCTC 10788
[7] = tested on: Candida albicans NCPF 1467
[8] = tested on: Escherichia coli NCTC 10418
[9] = tested on: Acinetobacter baumannii ATCC 17978
[10] = tested on: Pseudomonas aeruginosa PAO1
[11] = tested on: Escherichia coli ATCC 25922
[12] = tested on: Enterococcus faecium
[13] = tested on: Klebsiella pneumoniae
[14] = tested on: Pseudomonas aeruginosa
[15] = tested on: Staphylococcus aureus ATCC 43300
[16] = tested on: Acinetobacter baumannii
[17] = tested on: Streptococcus pneumoniae
[18] = tested on: Candida albicans ATCC 90028
[19] = tested on: Staphylococcus aureus ATCC 25923
[20] = tested on: Escherichia coli ATCC 25726
[21] = tested on: Micrococcus luteus ATCC 10240
[22] = tested on: Salmonella enterica subsp. enterica serovar Typhimurium ATCC 14028
[23] = tested on: Staphylococcus aureus ATCC 6538P
[24] = tested on: Bacillus subtilis ATCC 6633
[25] = tested on: Pseudomonas aeruginosa ATCC 27853
[26] = tested on: Staphylococcus epidermidis ATCC 12228
[27] = tested on: Klebsiella pneumoniae ATCC 10031
[28] = tested on: Shigella dysenteriae ATCC 9752
[29] = tested on: Staphylococcus aureus IFO 12732
[30] = tested on: Bacillus subtilis IFO 3513
[31] = tested on: Escherichia coli IFO 12734

SMILES: CC[C@H](C)[C@H](NC(=O)[C@H](C)NC(=O)[C@H](CCCCN)NC(=O)[C@@H]1CCCN1C(=O)[C@@H](NC(=O)[C@H](CC(C)C)NC(=O)[C@H](CO)NC(=O)[C@H](Cc1ccccc1)NC(=O)[C@H](CC(C)C)NC(=O)[C@@H](N)Cc1ccccc1)[C@@H](C)CC)C(=O)NCC(=O)NCC(=O)N[C@@H](CC(C)C)C(=O)N[C@H](C(=O)N[C@@H](CO)C(=O)N[C@@H](C)C(=O)N[C@@H](Cc1ccccc1)C(=O)N[C@@H](CCCCN)C(N)=O)[C@@H](C)CC [FLFSLIPKAIGGLISAFK]
MIC [2]: 8.32 µM (≈ 16 µg/mL) | MIC [3]: 4.16 µM (≈ 8 µg/mL) | MIC [4]: 2.08 µM (≈ 4 µg/mL) | MIC [5]: ≥ 33.3 µM | MIC [6]: 3 µM (≈ 5.76 µg/mL) | MIC [7]: 5 µM (≈ 9.61 µg/mL) | MIC [8]: 5 µM (≈ 9.61 µg/mL) | MIC [9]: 4.16 µM (≈ 8 µg/mL) | MIC [10]: > 66.6 µM

SMILES: CC[C@H](C)[C@H](NC(=O)CN)C(=O)N[C@@H](CCSC)C(=O)N[C@@H](CC(N)=O)C(=O)N[C@H](C(=O)N[C@H](C(=O)N[C@@H](CCCCN)C(=O)N[C@@H](CC(=O)O)C(=O)N[C@H](C(=O)N[C@@H](C)C(=O)N[C@H](C(=O)NCC(=O)N[C@H](C(=O)N[C@@H](C)C(=O)N[C@H](C(=O)N[C@@H](Cc1cnc[nH]1)C(=O)N[C@@H](CC(C)C)C(=O)N[C@@H](CC(C)C)C(=O)N[C@@H](CC(N)=O)C(=O)N[C@@H](CCSC)C(=O)N[C@H](C(=O)N[C@@H](CCCCN)C(=O)N[C@H]1CSSC[C@@H](C(=O)O)NC(=O)CNC(=O)[C@H]([C@@H](C)O)NC(=O)[C@H]([C@@H](C)CC)NC(=O)[C@H](CCCCN)NC1=O)C(C)C)[C@@H](C)O)C(C)C)[C@@H](C)O)C(C)C)C(C)C)[C@@H](C)O [GIMNTVKDVATGVATHLLNMVKCKITGC]
MIC [18]: ≥ 100 µM | MIC [1]: ≥ 100 µM | MIC [19]: > 50 µM | MIC [20]: ≥ 50 µM

SMILES: CC(C)C[C@H](NC(=O)[C@H](Cc1c[nH]c2ccccc12)NC(=O)CNC(=O)[C@H](CC(C)C)NC(=O)[C@@H](N)Cc1ccccc1)C(=O)N[C@@H](Cc1ccccc1)C(=O)N[C@@H](CCCCN)C(=O)N[C@@H](Cc1c[nH]c2ccccc12)C(=O)N[C@@H](C)C(=O)N[C@@H](CO)C(=O)N[C@@H](CCCCN)C(N)=O [FLGWLFKWASK]
MIC [11]: 36.2 µM (≈ 50 µg/mL) | MIC [21]: 9.04 µM (≈ 12.5 µg/mL) | MIC [22]: 145 µM (≈ 200 µg/mL) | MIC [23]: 18.1 µM (≈ 25 µg/mL) | MIC [24]: 18.1 µM (≈ 25 µg/mL) | MIC [25]: 145 µM (≈ 200 µg/mL) | MIC [26]: 36.2 µM (≈ 50 µg/mL) | MIC [27]: ≥ 36.2 µM | MIC [28]: 18.1 µM (≈ 25 µg/mL)

SMILES: CC(=O)N[C@@H](CCCCN)C(=O)N[C@@H](C)C(=O)N[C@@H](C)C(=O)N[C@@H](CCCCN)C(=O)N[C@@H](C)C(=O)N[C@@H](C)C(=O)N[C@@H](CCCCN)C(=O)N[C@@H](CCCCN)C(=O)N[C@@H](C)C(=O)N[C@@H](C)C(=O)N[C@@H](CCCCN)C(=O)N[C@@H](C)C(=O)N[C@@H](C)C(=O)N[C@@H](Cc1c[nH]c2ccccc12)C(=O)N[C@@H](CCCCN)C(N)=O [KAAKAAKKAAKAAWK]
MIC [11]: 130 µM (≈ 205 µg/mL) | MIC [22]: 130 µM (≈ 205 µg/mL) | MIC [23]: ≥ 130 µM | MIC [24]: ≥ 130 µM | MIC [25]: 130 µM (≈ 205 µg/mL) | MIC [26]: 130 µM (≈ 205 µg/mL) | MIC [27]: ≥ 130 µM | MIC [28]: ≥ 130 µM

SMILES: CC[C@H](C)[C@H](N)C(=O)N[C@@H](CC(C)C)C(=O)N1CCC[C@H]1C(=O)N[C@@H](Cc1c[nH]c2ccccc12)C(=O)N[C@@H](CCCCN)C(=O)N[C@@H](Cc1c[nH]c2ccccc12)C(=O)N1CCC[C@H]1C(=O)N[C@@H](Cc1c[nH]c2ccccc12)C(=O)N[C@@H](CC(C)C)C(=O)N1CCC[C@H]1C(=O)N[C@@H](CCCCN)C(=O)N[C@@H](CCCN=C(N)N)C(=O)N[C@@H](CCCN=C(N)N)C(N)=O [ILPWKWPWLPKRR]
MIC [29]: 3.52 µM (≈ 6.25 µg/mL) | MIC [30]: 1.76 µM (≈ 3.13 µg/mL) | MIC [31]: 28.2 µM (≈ 50 µg/mL)

More lines, now with the values ahead:

MIC [1]: ≥ 250 µM
SMILES: CC[C@H](C)[C@H](NC(=O)[C@H](CCCCN)NC(=O)CNC(=O)[C@H](Cc1ccccc1)NC(=O)[C@H](CC(C)C)NC(=O)[C@@H](N)CC(C)C)C(=O)N[C@H](C(=O)N[C@@H](CO)C(=O)N[C@@H](CCCN=C(N)N)C(=O)N[C@@H](CC(C)C)C(=O)N[C@@H](CC(C)C)C(=O)NCC(=O)N[C@@H](CC(N)=O)C(=O)O)[C@@H](C)CC [LLFGKIISRLLGN]

MIC [11]: 55 µM (≈ 139 µg/mL) | MIC [1]: ≥ 40 µM
SMILES: CC[C@H](C)[C@@H]1NC(=O)[C@H](C)NC(=O)[C@@H](NC(=O)[C@H](Cc2ccccc2)NC(=O)[C@@H](NC(=O)[C@H](CCCCN)NC(=O)[C@@H]2CCCN2C(=O)[C@H](CC(C)C)NC(=O)[C@H](Cc2ccccc2)NC(=O)[C@H](CCC(N)=O)NC(=O)CNC(=O)[C@H](C)NC(=O)[C@H](C)NC(=O)CNC(=O)[C@@H](NC(=O)[C@@H](NC(=O)[C@H](C)NC(=O)[C@@H]2CCCN2C(=O)[C@H](CC(C)C)NC(=O)[C@@H](N)Cc2ccccc2)[C@@H](C)CC)C(C)C)[C@@H](C)CC)CSSC[C@@H](C(=O)O)NC(=O)[C@H](CCCCN)NC(=O)[C@H](CCCCN)NC(=O)[C@H](CO)NC1=O [FLPAIVGAAGQFLPKIFCAISKKC]

MIC [11]: > 16 µM | MIC [12]: 8 µM (≈ 16.4 µg/mL) | MIC [13]: 16 µM (≈ 32.8 µg/mL) | MIC [14]: > 16 µM | MIC [15]: 16 µM (≈ 32.8 µg/mL) | MIC [16]: 5.3 µM (≈ 10.9 µg/mL) | MIC [17]: 8 µM (≈ 16.4 µg/mL)
SMILES: CC[C@H](C)[C@H](NC(=O)[C@H](Cc1cnc[nH]1)NC(=O)CNC(=O)CN)C(=O)N[C@@H](CCCN=C(N)N)C(=O)N[C@@H](CCCN=C(N)N)C(=O)N[C@H](C(=O)N[C@H](C(=O)N[C@@H](CCCN=C(N)N)C(=O)N[C@@H](CCCCN)C(=O)N[C@H](C(=O)N[C@H](C(=O)N[C@@H](Cc1cnc[nH]1)C(=O)N[C@H](C(=O)N[C@H](C(=O)N[C@@H](CCCCN)C(=O)N[C@@H](CCCCN)C(N)=O)[C@@H](C)CC)[C@@H](C)CC)[C@@H](C)CC)[C@@H](C)CC)[C@@H](C)CC)[C@@H](C)CC [GGHIRRIIRKIIHIIKK]

MIC [29]: 0.851 µM (≈ 1.56 µg/mL) | MIC [30]: 1.71 µM (≈ 3.13 µg/mL) | MIC [31]: 6.81 µM (≈ 12.5 µg/mL)
SMILES: CC[C@H](C)[C@H](N)C(=O)N[C@@H](CC(C)C)C(=O)N1CCC[C@H]1C(=O)N[C@@H](Cc1c[nH]c2ccccc12)C(=O)N[C@@H](CCCCN)C(=O)N[C@@H](Cc1c[nH]c2ccccc12)C(=O)N1CCC[C@H]1C(=O)N[C@@H](CC(C)C)C(=O)N[C@@H](Cc1c[nH]c2ccccc12)C(=O)N1CCC[C@H]1C(=O)N[C@@H](Cc1c[nH]c2ccccc12)C(=O)N[C@@H](CCCN=C(N)N)C(=O)N[C@@H](CCCN=C(N)N)C(N)=O [ILPWKWPLWPWRR]

MIC [29]: 1.71 µM (≈ 3.13 µg/mL) | MIC [30]: 1.71 µM (≈ 3.13 µg/mL) | MIC [31]: 13.6 µM (≈ 25 µg/mL)
SMILES: CC[C@H](C)[C@H](N)C(=O)N[C@@H](CC(C)C)C(=O)N1CCC[C@H]1C(=O)N[C@@H](Cc1c[nH]c2ccccc12)C(=O)N[C@@H](CCCCN)C(=O)N[C@@H](Cc1c[nH]c2ccccc12)C(=O)N1CCC[C@H]1C(=O)N[C@@H](Cc1c[nH]c2ccccc12)C(=O)N[C@@H](Cc1c[nH]c2ccccc12)C(=O)N1CCC[C@H]1C(=O)N[C@@H](CC(C)C)C(=O)N[C@@H](CCCN=C(N)N)C(=O)N[C@@H](CCCN=C(N)N)C(N)=O [ILPWKWPWWPLRR]
